This note sets out measurements from patent publication US20160318987A1 (MEDIMMUNE LIMITED, priority 2013, published 2016).

Entries after “also recorded” stand apart in the source; their conditions may differ. Where a SMILES comes first, the peptide text is derived from it. [ ]: non-standard residue; d: D form. The star is where a group is joined. Palmitoyl = CCCCCCCCCCCCCCCC(=O)*; αMeF = C[C@](N)(Cc1ccccc1)C(=O)O; αMeK = C[C@](N)(CCCCN)C(=O)O; Aib = CC(C)(N)C(=O)O

For series [1], the target named is T1, trypsin from porcine pancreas (Sus scrofa, UniProt P00761).
T1 construct: purchased Sigma P7409; host or cells: porcine pancreas
The series can be described thus: trypsin stability study (LC/MS). Type of series: in vitro ADME. The settings on record: Table 2 description. Here is the method:
(§1) Peptides for evaluation were prepared to a concentration of 1.0 mg/mL solutions in either pure water, sterile saline for injection (0.9% w/v NaCl/water) or 1× PBS (Dulbecco). 100 μL (100 μg/mL peptide) of these solutions was added to 900 μL of each protease solution. Additional experiments were performed examining protein degradation during exposure to serum and gastric fluid. For serum studies, peptides were incubated with 50% female Sprague-Dawley strain rat serum (SD rat serum). For gastric fluid studies, peptides were incubated 1:1 (volume:volume), fresh rat gastric fluid.
(§2) The peptide and enzyme (or serum or gastric fluid) were co-incubated in a temperature regulated water bath at 37° C. for the duration of the experiment. During each experiment 100 μL aliquots (10 μg peptide) of the incubated peptide-enzyme mixture were withdrawn periodically, quenched by addition of an equal volume of 5% TFA (v/v) in 1:1 water/acetonitrile to arrest proteolytic activity, and analyzed by liquid chromatography-mass spectrometry (LC/MS): Agilent Polaris C8-A column (4.6×100 mm, 3 micron) using a linear binary gradient of 10-90% MeCN (0.1% TFA v/v) in water (0.1% TFA v/v) over 30 minutes at 1.5 mL min^−1 at ambient temperature. Analytes were detected by both UV absorption at 210 nm and ionization using a Waters 3100 mass detector (ESI^+ mode). New peptidic species (fragments) derived from enzymatic cleavage of peptides were analyzed post-process, and their molecular masses were used to identify the precise cleavage position (highlighting the scissile bond in each case).

Series [2] deals with T2, hGIP-R (Homo sapiens, UniProt P48546).
T2 construct: expressed in transfected cells
T2 sequence (P48546 22-466): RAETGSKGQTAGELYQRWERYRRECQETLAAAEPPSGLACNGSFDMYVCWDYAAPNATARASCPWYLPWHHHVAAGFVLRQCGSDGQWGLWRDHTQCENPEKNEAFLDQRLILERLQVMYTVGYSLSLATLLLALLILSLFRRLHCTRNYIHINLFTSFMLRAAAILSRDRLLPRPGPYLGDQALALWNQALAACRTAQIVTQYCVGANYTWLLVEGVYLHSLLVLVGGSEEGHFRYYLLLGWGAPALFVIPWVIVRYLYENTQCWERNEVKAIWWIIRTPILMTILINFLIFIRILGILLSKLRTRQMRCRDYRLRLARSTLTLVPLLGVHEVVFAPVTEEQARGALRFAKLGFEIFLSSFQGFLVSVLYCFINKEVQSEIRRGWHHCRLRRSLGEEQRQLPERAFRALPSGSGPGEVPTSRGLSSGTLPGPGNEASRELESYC
The series can be described thus: cAMP functional assay, cells expressing human GIP receptor (primary assay). Type of series: cell-based. Conditions: n = 2.

The target of series [3] is T3, Neprilysin (rhNEP) (Homo sapiens, UniProt P08473).
T3 construct: purchased R&D Systems 1182-ZNC-010
The series can be described thus: neprilysin stability study (LC/MS). Type of series: in vitro ADME. Conditions: Table 2 description. Here is the method:
as §1, §2

For series [4], the target named is T4, hGluc-R (Homo sapiens, UniProt P47871).
T4 construct: expressed in transfected cells
The series can be described thus: cAMP functional assay, cells expressing human glucagon receptor (primary assay). Format: cell-based. Conditions: n = 2.

Series [5] deals with T5, hGLP-1R (Homo sapiens, UniProt P43220).
T5 construct: expressed in transfected cells
The series can be described thus: cAMP functional assay, cells expressing human GLP-1 receptor (primary assay). Format: cell-based. Conditions: n = 2.

Series [6] deals with Neprilysin (Neutral endopeptidase, rhNEP). As to the kind of experiment: 1.0 μg rhNEP in 900 μL assay buffer: 50 mM Tris, 50 mM NaCl, 50 mM NaHCO3, pH 8.3. Conditions: 37° C., up to 240 hours.
For series [7], the system named is Trypsin. As to the kind of experiment: 1 mg/mL lyophilized trypsin from porcine pancreas in 50 mM Tris, 10 mM CaCl2, 150 mM NaCl, 1 mM HCl, pH 7.8. Conditions: 37° C., up to over 18 hours.
In series [8] the test system is Chymotrypsin (rhCTRC). As to the kind of experiment: 1.0 μg rhCTRC in 900 μL assay buffer: 50 mM Tris, 10 mM CaCl2, 150 mM NaCl, 1 mM HCl, pH 7.8. Conditions: 37° C., up to over 60 hours.
Series [9] relates to Trypsin, Sigma P7409 (Type II-S). As to the kind of experiment: 1 mg/mL lyophilized trypsin from porcine pancreas in 50 mM Tris, 10 mM CaCl2, 150 mM NaCl, 1 mM HCl, pH 7.8. Conditions: 37° C., up to over 18 hours.
In series [10] the test system is DPP-IV, Neprilysin, Chymotrypsin, Trypsin, Pepsin. As to the kind of experiment: enzyme resistance, protease panel (Table 2 description). Type of series: in vitro ADME. Here is the method:
as §1, §2

A short description of series [11]: gastric fluid stability study (LC/MS). Format: in vitro ADME, rat. Here is the method: as §1, §2

T4 sequence (P47871 26-477): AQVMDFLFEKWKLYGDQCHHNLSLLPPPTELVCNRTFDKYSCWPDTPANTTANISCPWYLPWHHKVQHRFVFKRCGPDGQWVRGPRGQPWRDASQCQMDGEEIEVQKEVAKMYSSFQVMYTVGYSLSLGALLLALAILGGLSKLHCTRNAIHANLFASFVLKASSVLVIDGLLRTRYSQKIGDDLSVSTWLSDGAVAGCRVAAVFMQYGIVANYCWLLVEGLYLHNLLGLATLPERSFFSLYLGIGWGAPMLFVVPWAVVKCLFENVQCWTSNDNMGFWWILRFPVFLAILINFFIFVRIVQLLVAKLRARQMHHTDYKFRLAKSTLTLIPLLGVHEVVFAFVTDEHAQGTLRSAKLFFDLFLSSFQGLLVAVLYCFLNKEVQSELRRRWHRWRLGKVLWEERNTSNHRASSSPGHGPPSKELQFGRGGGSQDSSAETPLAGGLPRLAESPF
T5 sequence (P43220 24-463): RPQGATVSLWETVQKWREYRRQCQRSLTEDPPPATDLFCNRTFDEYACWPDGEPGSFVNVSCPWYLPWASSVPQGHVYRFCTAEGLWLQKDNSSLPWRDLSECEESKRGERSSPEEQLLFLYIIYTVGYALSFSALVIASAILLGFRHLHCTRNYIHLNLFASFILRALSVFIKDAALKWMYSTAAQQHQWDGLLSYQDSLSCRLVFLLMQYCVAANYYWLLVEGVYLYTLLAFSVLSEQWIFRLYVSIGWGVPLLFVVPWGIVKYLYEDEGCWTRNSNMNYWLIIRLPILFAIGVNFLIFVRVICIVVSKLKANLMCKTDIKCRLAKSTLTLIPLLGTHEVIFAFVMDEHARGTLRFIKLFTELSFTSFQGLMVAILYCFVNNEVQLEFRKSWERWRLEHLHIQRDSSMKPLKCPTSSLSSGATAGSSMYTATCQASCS
T3 sequence (P08473 52-750 limits assumed): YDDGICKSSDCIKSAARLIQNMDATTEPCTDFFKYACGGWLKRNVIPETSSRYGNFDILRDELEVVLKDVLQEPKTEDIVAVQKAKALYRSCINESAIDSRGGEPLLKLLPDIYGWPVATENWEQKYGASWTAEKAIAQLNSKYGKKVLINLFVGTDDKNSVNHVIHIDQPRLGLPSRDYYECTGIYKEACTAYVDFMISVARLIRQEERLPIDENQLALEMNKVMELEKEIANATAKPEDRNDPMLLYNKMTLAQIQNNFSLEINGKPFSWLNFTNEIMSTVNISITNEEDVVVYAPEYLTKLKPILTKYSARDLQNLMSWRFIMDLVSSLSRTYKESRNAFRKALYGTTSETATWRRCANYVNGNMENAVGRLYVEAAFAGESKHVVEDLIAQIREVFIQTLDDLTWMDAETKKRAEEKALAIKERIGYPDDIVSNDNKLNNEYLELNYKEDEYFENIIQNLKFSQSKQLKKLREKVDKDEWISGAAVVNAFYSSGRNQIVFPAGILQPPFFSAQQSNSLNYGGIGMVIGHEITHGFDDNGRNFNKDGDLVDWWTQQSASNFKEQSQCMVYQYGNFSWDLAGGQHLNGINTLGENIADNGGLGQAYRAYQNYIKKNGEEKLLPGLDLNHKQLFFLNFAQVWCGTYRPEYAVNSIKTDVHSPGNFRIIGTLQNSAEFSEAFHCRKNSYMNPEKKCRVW
T1 sequence (P00761 9-231): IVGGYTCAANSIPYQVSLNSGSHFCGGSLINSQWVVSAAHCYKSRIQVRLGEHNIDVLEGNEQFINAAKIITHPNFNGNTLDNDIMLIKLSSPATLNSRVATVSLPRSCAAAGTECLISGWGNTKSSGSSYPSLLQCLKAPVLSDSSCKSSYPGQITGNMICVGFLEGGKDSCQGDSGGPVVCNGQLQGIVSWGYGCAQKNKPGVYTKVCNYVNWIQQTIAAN

Turning to `CC[C@H](C)[C@H](NC(=O)[C@](C)(Cc1ccccc1)NC(=O)[C@H](CCC(=O)O)NC(=O)[C@](C)(CCCCN)NC(=O)[C@H](C)NC(=O)[C@H](C)NC(=O)[C@H](CCC(N)=O)NC(=O)CNC(=O)[C@H](CCC(=O)O)NC(=O)[C@H](CC(C)C)NC(=O)[C@](C)(Cc1ccccc1)NC(=O)[C@H](CO)NC(=O)[C@H](CO)NC(=O)[C@@H](NC(=O)[C@H](CC(=O)O)NC(=O)[C@H](CO)NC(=O)[C@@H](NC(=O)[C@](C)(Cc1ccccc1)NC(=O)[C@H](CO)NC(=O)CNC(=O)[C@H](CCC(=O)O)NC(=O)C(C)(C)NC(=O)[C@@H](N)Cc1c[nH]cn1)[C@@H](C)O)C(C)C)C(=O)N[C@@H](C)C(=O)N[C@@](C)(Cc1ccccc1)C(=O)N[C@@H](CC(C)C)C(=O)N[C@H](C(=O)N[C@@](C)(CCCCN)C(=O)NCC(=O)NCC(N)=O)C(C)C` [SEQ ID NO: 46, H-(Aib)^2-EG-(S)^5-(α-MeF)^6-TSDV^10 SS-(α-MeF)^13-LE^15 GQAA-(α-MeK)^20 E-(α-MeF)^22-IA-(α-MeF)^25 LV-(α-MeK)^28-G-(G)^30] (H-H[Aib]EGS[αMeF]TSDVSS[αMeF]LEGQAA[αMeK]E[αMeF]IA[αMeF]LV[αMeK]GG-NH2), the “Trypsin resistance/susceptibility (Discussion / Description)” value in series [1] is on record as “resistance, maintaining”. The concentration for a half-maximal effect (EC50) was found to be 103 nM in series [2], 103 nM in [4] and 0.0141 nM in series [5]. Besides, the “Neprilysin resistance (Discussion / Description)” value in series [3] was “resistance, maintaining”.

Turning to “H-(Aib)^2-EGT^5 FTSDV^10 SSYLE^15 GQAAK^20 EFIAW^25 LVKGR^30”, the cleaved bond result is reported as “T5-Phe6; also recorded: S12-Tyr13; also recorded: E21-Phe22; also recorded: A24-Trp25” in series [6] and “Lys20-E21, by 90 minutes; also recorded: Lys28-G29, by 90 minutes” in [7].

For “H-(Aib)^2-EG-(S)^5-(α-MeF)^6-TSDV^10 SS-(α-MeF)^13-LE^15 GQAA-(α-MeK)^20 E-(α-MeF)^22-IA-(α-MeF)^25-(V)^26-V-(α-MeK)^28-G-(G)30”, the not cleaved entry is on record as “stability for over 60 hours, with no major cleavage products observed” in series [8] and “significantly extended stability for over 18 hours” in series [7].

Consider “H-(Aib)^2-EG-(S)^5-(α-MeF)^6-TSDV^10 SS-(α-MeF)^13-LE^15 GQAAK^20 E-(α-MeF)^22-IA-(α-MeF)^25 LVKGR^30”, for which the cleaved bond result in series [8] is “Leu26-Val27, by 48 hours”; in series [7] it was “Lys20-E21, by 90 minutes; also recorded: Lys28-G29, by 90 minutes”. In addition, the not cleaved entry in series [6] is listed as “no proteolytic degradation over a 96 hour time-course; still stable after 10 days”.

Regarding “H-(Aib)^2-EG-(S)^5-(α-MeF)^6-TSDV^10 SS-(α-MeF)^13-LE^15 GQAAK^20 E-(α-MeF)^22-IA-(α-MeF)^25 L-(Aib)^27-K-(Aib)^29-R^30”, the not cleaved entry in [9] is recorded as “intact”.

Take `CCCCCCCCCCCCCCCC(=O)NCCCC[C@H](NC(=O)CNC(=O)CNC(=O)[C@](C)(CCCCN)NC(=O)[C@@H](NC(=O)[C@@H](NC(=O)[C@](C)(Cc1ccccc1)NC(=O)[C@H](C)NC(=O)[C@@H](NC(=O)[C@](C)(Cc1ccccc1)NC(=O)[C@H](CCC(=O)O)NC(=O)[C@](C)(CCCCN)NC(=O)[C@H](C)NC(=O)[C@H](C)NC(=O)[C@H](CCC(N)=O)NC(=O)CNC(=O)[C@H](CCC(=O)O)NC(=O)[C@H](CC(C)C)NC(=O)[C@](C)(Cc1ccccc1)NC(=O)[C@H](CO)NC(=O)[C@H](CO)NC(=O)[C@@H](NC(=O)[C@H](CC(=O)O)NC(=O)[C@H](CO)NC(=O)[C@@H](NC(=O)[C@](C)(Cc1ccccc1)NC(=O)[C@H](CO)NC(=O)CNC(=O)[C@H](CCC(=O)O)NC(=O)C(C)(C)NC(=O)[C@@H](N)Cc1c[nH]cn1)[C@@H](C)O)C(C)C)[C@@H](C)CC)C(C)C)C(C)C)C(N)=O` [SEQ ID NO: 52, H-(Aib)^2-EG-(S)^5-(α-MeF)^6-TSDV^10 SS-(α-MeF)^13-LE^15 GQAA-(α-MeK)^20 E-(α-MeF)^22-IA-(α-MeF)^25-(V)^26-V-(α-MeK)^28-G-(G)^30-K(Ε-Palm)] (H-H[Aib]EGS[αMeF]TSDVSS[αMeF]LEGQAA[αMeK]E[αMeF]IA[αMeF]VV[αMeK]GGK(Palmitoyl)-NH2): the figures for the EC50 in series [2], in [4] and in [5] were 93.1 nM, 93.1 nM and 0.41 nM, respectively. In addition, in series [10], the “enzyme resistance (DPP-IV, Neprilysin, Chymotrypsin, Trypsin, Pepsin)” value is given as “excellent enzyme resistance”. The “stability relative to Liraglutide” value in [11] (rat gastric fluid 1:1) is reported as “significantly exceeds”. Besides, the “stability relative to lipidated comparator SEQ ID NO: 5” value in series [11] (rat gastric fluid 1:1) was “significantly exceeds”. The “spectrum over the time course” value in series [11] (rat gastric fluid, zoomed spectra) is given as “virtually unchanged spectrum”.
